Measurements as given in US10597388B2, “Pyridazinone herbicides” (FMC CORPORATION, priority 2014, dated 2020).

Tests used:
Experiment in all cases: Test D controlled growth environment herbicide test, pre- and postemergence
Type in all cases: in vivo
[1] = tested on: deadnettle (henbit deadnettle, Lamium amplexicaule)
Method in brief: (§1)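 Pre-emergence: seeds sown in silt loam soil were sprayed with compound in a non-phytotoxic solvent mix containing surfactant. Post-emergence: plants at 2 to 18 cm (1- to 4-leaf stage) in peat moss/vermiculite medium got the same formulation. Visual 0–100 rating versus controls after 14 to 21 d.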

[2] = tested on: chickweed (common chickweed, Stellaria media)
Method in brief: as §1

[3] = tested on: blackgrass (Alopecurus myosuroides)
Method in brief: as §1

[4] = tested on: Russian thistle (Salsola kali)
Method in brief: as §1

[5] = tested on: wheat, winter (winter wheat, Triticum aestivum)
Method in brief: as §1

[6] = tested on: bromegrass, downy (downy bromegrass, Bromus tectorum)
Method in brief: as §1

[7] = tested on: oilseed rape (Brassica napus)
Method in brief: as §1

[8] = tested on: wheat, spring (spring wheat, Triticum aestivum)
Method in brief: as §1

[9] = tested on: ryegrass, Italian (Italian ryegrass, Lolium multiflorum)
Method in brief: as §1

[10] = tested on: speedwell (bird's-eye speedwell, Veronica persica)
Method in brief: as §1

[11] = tested on: mustard, wild (wild mustard, Sinapis arvensis)
Method in brief: as §1

[12] = tested on: foxtail, green (green foxtail, Setaria viridis)
Method in brief: as §1

[13] = tested on: oat, wild (wild oat, Avena fatua)
Method in brief: as §1

[14] = Postemergence, 31 g ai/ha, scale 0 to 100 (0 no effect, 100 complete control)
[15] = Postemergence, 125 g ai/ha, visual rating on scale 0 (no effect) to 100 (complete control), 14 to 21 d
[16] = Postemergence, 250 g ai/ha, scale 0 to 100 (0 no effect, 100 complete control)
[17] = Preemergence, 62 g ai/ha, scale 0 to 100 (0 no effect, 100 complete control)
[18] = Preemergence, 125 g ai/ha, scale 0 to 100 (0 no effect, 100 complete control)
[19] = Preemergence, 250 g ai/ha, scale 0 to 100, 0 no effect, 100 complete control
[20] = postemergence, 62 g ai/ha, scale 0 to 100, 0 no effect, 100 complete control

COC(=O)Oc1c(C)nn(C)c(=O)c1-c1c(C)sc2ccc(C)cc12 [Compound 80]
Deadnettle plant response rating [1, 14]: 35 | Plant response rating, Deadnettle [1, 15]: 35 | Plant response rating, Deadnettle [1, 16]: 50 | Plant response rating (scale of 0 to 100), Deadnettle ([1]; Preemergence, 31 g ai/ha): 55 | Plant response rating, Deadnettle [1, 17]: 65 | Plant response rating, Deadnettle [1, 18]: 70 | Plant response rating, Deadnettle [1, 19]: 75 | Plant response rating, Deadnettle [1, 20]: 25 | Chickweed plant response rating [2, 14]: 90 | Plant response rating, Chickweed [2, 15]: 100 | Plant response rating, Chickweed [2, 16]: 100 | Plant response rating (scale of 0 to 100), Chickweed ([2]; Preemergence, 31 g ai/ha): 100 | Plant response rating, Chickweed [2, 17]: 100 | Plant response rating, Chickweed [2, 18]: 100 | Plant response rating, Chickweed [2, 19]: 100 | Plant response rating, Chickweed [2, 20]: 100 | Blackgrass plant response rating [3, 14]: 75 | Plant response rating, Blackgrass [3, 15]: 90 | Plant response rating, Blackgrass [3, 16]: 90 | Plant response rating (scale of 0 to 100), Blackgrass ([3]; Preemergence, 31 g ai/ha): 70 | Plant response rating, Blackgrass [3, 17]: 75 | Plant response rating, Blackgrass [3, 18]: 80 | Plant response rating, Blackgrass [3, 19]: 85 | Plant response rating, Blackgrass [3, 20]: 80 | Russian Thistle plant response rating [4, 14]: 70 | Plant response rating, Russian Thistle [4, 15]: 80 | Plant response rating, Russian Thistle [4, 16]: 80 | Plant response rating (scale of 0 to 100), Russian Thistle ([4]; Preemergence, 31 g ai/ha): 10 | Plant response rating, Russian Thistle [4, 17]: 95 | Plant response rating, Russian Thistle [4, 18]: 95 | Plant response rating, Russian Thistle [4, 19]: 100 | Plant response rating, Russian Thistle [4, 20]: 70 | Wheat, Winter plant response rating [5, 14]: 0 | Plant response rating, Wheat, Winter [5, 15]: 5 | Plant response rating, Wheat, Winter [5, 16]: 15 | Plant response rating (scale of 0 to 100), Wheat, Winter ([5]; Preemergence, 31 g ai/ha): 0 | Plant response rating, Wheat, Winter [5, 17]: 0 | Plant response rating, Wheat, Winter [5, 18]: 0 | Plant response rating, Wheat, Winter [5, 19]: 20 | Plant response rating, Wheat, Winter [5, 20]: 0 | Bromegrass, Downy plant response rating [6, 14]: 55 | Plant response rating, Bromegrass, Downy [6, 15]: 70 | Plant response rating, Bromegrass, Downy [6, 16]: 75 | Plant response rating (scale of 0 to 100), Bromegrass, Downy ([6]; Preemergence, 31 g ai/ha): 30 | Plant response rating, Bromegrass, Downy [6, 17]: 35 | Plant response rating, Bromegrass, Downy [6, 18]: 75 | Plant response rating, Bromegrass, Downy [6, 19]: 85 | Plant response rating, Bromegrass, Downy [6, 20]: 65 | Oilseed Rape plant response rating [7, 14]: 15 | Plant response rating, Oilseed Rape [7, 15]: 65 | Plant response rating, Oilseed Rape [7, 16]: 75 | Plant response rating (scale of 0 to 100), Oilseed Rape ([7]; Preemergence, 31 g ai/ha): 35 | Plant response rating, Oilseed Rape [7, 17]: 35 | Plant response rating, Oilseed Rape [7, 18]: 35 | Plant response rating, Oilseed Rape [7, 19]: 40 | Plant response rating, Oilseed Rape [7, 20]: 55 | Wheat, Spring plant response rating [8, 14]: 0 | Plant response rating, Wheat, Spring [8, 15]: 15 | Plant response rating, Wheat, Spring [8, 16]: 30 | Plant response rating (scale of 0 to 100), Wheat, Spring ([8]; Preemergence, 31 g ai/ha): 0 | Plant response rating, Wheat, Spring [8, 17]: 0 | Plant response rating, Wheat, Spring [8, 18]: 25 | Plant response rating, Wheat, Spring [8, 19]: 35 | Plant response rating, Wheat, Spring [8, 20]: 10 | Ryegrass, Italian plant response rating [9, 14]: 85 | Plant response rating, Ryegrass, Italian [9, 15]: 98 | Plant response rating, Ryegrass, Italian [9, 16]: 100 | Plant response rating (scale of 0 to 100), Ryegrass, Italian ([9]; Preemergence, 31 g ai/ha): 90 | Plant response rating, Ryegrass, Italian [9, 17]: 90 | Plant response rating, Ryegrass, Italian [9, 18]: 95 | Plant response rating, Ryegrass, Italian [9, 19]: 100 | Plant response rating, Ryegrass, Italian [9, 20]: 95 | Speedwell plant response rating [10, 14]: 65 | Plant response rating, Speedwell [10, 15]: 85 | Plant response rating, Speedwell [10, 16]: 80 | Plant response rating (scale of 0 to 100), Speedwell ([10]; Preemergence, 31 g ai/ha): 65 | Plant response rating, Speedwell [10, 17]: 95 | Plant response rating, Speedwell [10, 18]: 95 | Plant response rating, Speedwell [10, 19]: 100 | Plant response rating, Speedwell [10, 20]: 75 | Mustard, Wild plant response rating [11, 14]: 35 | Plant response rating, Mustard, Wild [11, 15]: 70 | Plant response rating, Mustard, Wild [11, 16]: 100 | Plant response rating (scale of 0 to 100), Mustard, Wild ([11]; Preemergence, 31 g ai/ha): 0 | Plant response rating, Mustard, Wild [11, 17]: 0 | Plant response rating, Mustard, Wild [11, 18]: 0 | Plant response rating, Mustard, Wild [11, 19]: 0 | Plant response rating, Mustard, Wild [11, 20]: 50 | Foxtail, Green plant response rating [12, 14]: 70 | Plant response rating, Foxtail, Green [12, 15]: 90 | Plant response rating, Foxtail, Green [12, 16]: 95 | Plant response rating (scale of 0 to 100), Foxtail, Green ([12]; Preemergence, 31 g ai/ha): 20 | Plant response rating, Foxtail, Green [12, 17]: 80 | Plant response rating, Foxtail, Green [12, 18]: 100 | Plant response rating, Foxtail, Green [12, 19]: 100 | Plant response rating, Foxtail, Green [12, 20]: 90 | Oat, Wild plant response rating [13, 14]: 95 | Plant response rating, Oat, Wild [13, 15]: 100 | Plant response rating, Oat, Wild [13, 16]: 100 | Plant response rating (scale of 0 to 100), Oat, Wild ([13]; Preemergence, 31 g ai/ha): 85 | Plant response rating, Oat, Wild [13, 17]: 90 | Plant response rating, Oat, Wild [13, 18]: 90 | Plant response rating, Oat, Wild [13, 19]: 95 | Plant response rating, Oat, Wild [13, 20]: 98
